Results from patent US8388982B2, “Photo-induced damage mitigating agents and preparation and methods of use thereof” (priority 2008, dated 2013).

Key:
[1] = Fluorescence correlation spectroscopy (FCS) triplet-state quenching; conditions: Alexa568 in low oxygen
Method: Fluorescence correlation spectroscopy (FCS) is a commonly used technique for experimentally characterizing the dynamics of fluorescent species that was initially introduced in the early 1970's (Magde, D., et al, (1972) Phys. Rev. Lett. 29: 705-708). In FCS, light is focused on a sample in a very small detection volume, and the measured fluorescence intensity fluctuations (due to diffusion, physical or chemical reactions, aggregation, etc.) are analyzed using the temporal autocorrelation. Further details are provided, e.g., in Ehrenberg, M. et al. (1974) Chem Phys 4: 390-401; Elson, E. L., et al. (1974) Biopolymers 13: 1-27; Magde, D., et al. (1974) Biopolymers 13: 29-61; Thompson, N. L. (1991) Topics in Fluorescence Spectroscopy Techniques, Vol. 1, ed. J. R. Lakowicz (New York: Plenum) pp. 337-378; Hess, et al. (2002) Biochemistry 41: 697; and Krichevsky, O., et al. (2002) Rep. Prog. Phys. 65: 251-297.
FCS experiments using the fluorophore Alexa568 in low oxygen were used to monitor the amount of the dye triplet state upon excitation over time as a measure of triplet-state quenching by 6-hydroxy-2,5,7,8-tetramethylchroman-2-carboxylic acid and derivatives thereof. Briefly, these experiments were performed on a confocal microscope setup (Olympus IX71 with water-immersion objective UPlanSApo, 60×) using a single line laser excitation (532 nm) at 0.4-mW intensity and two single photon avalanche detectors (SPAD detectors; Perkin Elmer, Waltham, Mass.). The FCS measurements were done in a reaction buffer containing 50 mM ACES, pH 7.1; 75 mM potassium acetate; and 5 mM DTT. A protocatechuic acid/protocatechuate-3,4-dioxygenase (PCA/PCD) oxygen scavenging system (see, e.g., Aitken, et al. (2007) “An Oxygen Scavenging System for Improvement of Dye Stability in Single-Molecule Fluorescence Experiments,” Biophys J. 94:1826-1835) was included, as well. Correlation curves were generated and recorded by a FLEX digital photon correlator (Correlator.com; Bridgewater, N.J.), and analyzed using Origin8.0 (OriginLabs; Northampton, Mass.).
In these experiments, the photo-induced damage mitigating ability of the preparation of photomodified 6-hydroxy-2,5,7,8-tetramethylchroman-2-carboxylic acid (described above), an aged 6-hydroxy-2,5,7,8-tetramethylchroman-2-carboxylic acid solution (stored at −20° C. for ˜1 year), a freshly prepared 6-hydroxy-2,5,7,8-tetramethylchroman-2-carboxylic acid solution (prepared according to manufacturer's instructions), and fresh preparations treated with various UV exposure regimes were compared. The results are plotted as autocorrelation curves in FIG. 9, and the amplitude of the “hump” at around one microsecond (0.001 millisecond (ms)) to a few microseconds indicates the triplet fraction of the dye, so the smaller the amplitude, the better the triplet quencher. […] The aged solution was the second best performer with an autocorrelation amplitude of ˜0.07 at a lag time of 0.001 ms.
The effectiveness of the photomodified solutions and the purified Fraction A and Fraction B as triplet-state quenchers/radical scavengers was tested by fluorescence correlation spectroscopy (FCS) using Alexa568 in low oxygen, as described above in Example 1. Two different intensity of excitation settings, 0.2 mW and 0.4 mW, were used for power dependence.

polymerase = experiment: Sequencing-by-incorporation readlength; format: biochemical; conditions: for readlengths compared with 6-hydroxy-2,5,7,8-tetramethylchroman-2-carboxylic acid / no PIDMA: single-molecule, real-time sequencing reactions, FIG. 17; for sequencing readlength: purified fractions, Example 7
From the text: In yet another aspect, the present invention is directed to illuminated reactions for single molecule analysis, including sequencing of nucleic acids by observing incorporation of nucleotides into a nascent nucleic acid sequence during template-directed polymerase-based synthesis. Such methods, generally referred to as “sequencing-by-incorporation,” involve the observation of the addition of nucleotides or nucleotide analogs in a template-dependent fashion in order to determine the sequence of the template strand. See, e.g., U.S. Pat. Nos. 6,780,591, 7,037,687, 7,344,865, 7,302,146, and Eid, et al. (2009) Science 323:133-138, all of which are incorporated herein by reference in their entireties for all purposes. Processes for performing this detection include the use of fluorescently labeled nucleotide analogs within a confined observation region, e.g., within a nanoscale well and/or tethered, either directly or indirectly to a surface, By using excitation illumination (i.e., illumination of an appropriate wavelength to excite the fluorescent label and induce a detectable signal), the fluorescently labeled bases can be detected as they are incorporated into the nascent strand, thus identifying the nature of the incorporated base, and as a result, the complementary base in the template strand.
One particularly preferred aspect of the invention is in conjunction with the sequencing by incorporation of nucleic acids within an optical confinement, such as a zero mode waveguide, Such reactions involve observation of an extremely small reaction volume in which one or only a few polymerase enzymes and their fluorescent substrates may be present. Zero mode waveguides, and their use in sequencing applications are generally described in U.S. Pat. Nos. 6,917,726 and 7,033,764, and preferred methods of sequencing by incorporation are generally described in Published U.S. Patent Application No. 2003-0044781, the full disclosures of which are incorporated herein by reference in their entireties for all purposes, and in particular for their teachings regarding such sequencing applications and methods. Briefly, arrays of zero mode waveguides (“ZMWs”), configured in accordance with the present invention may be employed as optical confinements for single molecule analytical reactions, e.g., for nucleic acid (e.g., DNA, RNA) sequence determination. In particular, as noted above, these ZMWs provide extremely small observation volumes at or near the transparent substrate surface, also termed the “base” of the ZMW. A nucleic acid synthesis complex, e.g., template sequence, polymerase, and primer, which is immobilized at the base of the ZMW, may then be specifically observed during synthesis to monitor incorporation of nucleotides in a template dependent fashion, and thus provide the identity and sequences of nucleotides in the template strand. This identification is typically accomplished by providing detectable label groups, such as fluorescent labeling molecules, on the nucleotides. In some instances, the labeled nucleotides terminate primer extension, allowing a “one base at a time” interrogation of the complex. If, upon exposure to a given labeled base, a base is incorporated, its representative fluorescent signal may be detected at the base of the ZMW. If no signal is detected, then the base was not incorporated and the complex is interrogated with each of the other bases, in turn. Once a base is incorporated, the labeling group is removed, e.g., through the use of a photocleavable linking group, and where the label was not the terminating group, a terminator, upon the 3′ end of the incorporated nucleotide, may be removed prior to subsequent interrogation.
Experiments were performed to test the performance of pure 6-hydroxy-2,5,7,8-tetramethylchroman-2-carboxylic acid against various mixtures of 6-hydroxy-2,5,7,8-tetramethylchroman-2-carboxylic acid and derivatives thereof. […]

[2] = Photolysis of Fraction A to Fraction B under UV, followed by reverse phase HPLC; format: physicochemical
Method: Fraction A was further converted to Fraction B by photolysis in a separate experiment. Specifically, purified Fraction A (reverse phase HPLC peak migration time of 9.791 minutes; FIG. 12A) was subjected to UV irradiation in water for one hour to produce Fraction B (reverse phase HPLC peak migration time of 14.891 minutes; FIG. 12B).

[3] = Brightness of Alexa A-647 dye; conditions: purified fractions
[4] = Saturation point of solutions for photomodification; format: physicochemical; conditions: solutions subjected to photomodification
Method: Of course, the amount of time for UV irradiation and room light exposure can be adjusted, as can the concentration of the 6-hydroxy-2,5,7,8-tetramethylchroman-2-carboxylic acid solution to be treated. For example, one to twenty-four hours of UV irradiation have been employed, as have 18 to 36 hours room light exposure. In general, and as shown in FIG. 9 described above, increasing UV exposures increase the ability of the mixture to effectively mitigate photo-induced damage, although there was no significant difference between the three, six, and 24 hour exposures (FIG. 9). Further, the solutions of 6-hydroxy-2,5,7,8-tetramethylchroman-2-carboxylic acid subjected to photomodification were typically of a concentration of 95-100 mM, which is near the saturation point for the compound. However, treatment of more or less concentrated solutions in contemplated and known chemical methods may be employed to increase the solubility of the compound prior to treatment.

[5] = Example 3, FIG. 11A, 0.2 mW intensity of excitation
[6] = Example 3, FIG. 11B, 0.4 mW intensity of excitation

Row | SMILES | autocorrelation amplitude at a lag time of 0.001 ms [1, 5] | autocorrelation amplitude at a lag time of 0.001 ms [1, 6] | readlengths compared with 6-hydroxy-2,5,7,8-tetramethylchroman-2-carboxylic acid / no PIDMA (polymerase) | sequencing readlength (polymerase) | brightness of Alexa A-647 dye [3] | further results
1 | CC1=C(C)C(=O)C(CCC(C)(O)C(=O)O)=C(C)C1=O (single isomer, unassigned) [Fraction A, 2-hydroxy-2-methyl-4-(2,4,5-trimethyl-3,6-dioxocyclohexa-1,4-dienyl)butanoic acid] | ~0.065 | ~0.043 | to a lesser extent |  |  | readlength compared with fresh 6-hydroxy-2,5,7,8-tetramethylchroman-2-carboxylic acid (polymerase; 0.05 mM purified Fraction A with 0.5 mM 6-hydroxy-2,5,7,8-tetramethylchroman-2-carboxylic acid, FIG. 13): much longer readlengths; readlength compared with fresh 6-hydroxy-2,5,7,8-tetramethylchroman-2-carboxylic acid (polymerase; 0.10 mM purified Fraction A with 0.5 mM 6-hydroxy-2,5,7,8-tetramethylchroman-2-carboxylic acid, FIG. 13): much longer readlengths; readlength compared with fresh 6-hydroxy-2,5,7,8-tetramethylchroman-2-carboxylic acid (polymerase; 0.25 mM purified Fraction A with 0.5 mM 6-hydroxy-2,5,7,8-tetramethylchroman-2-carboxylic acid, FIG. 13): much longer readlengths; conversion from Fraction A to Fraction B ([2]; UV irradiation in water for one hour): 80%; time until conversion is essentially complete ([2]; under a portable UV lamp): about four; half-life ([2]; water under UV irradiation, UV irradiation in water, read-out: half-life of conversion to Fraction B): 26 min
2 | CC1=C(C)C(=O)C2(CCC(C)(C(=O)O)O2)C(C)(O)C1=O (single isomer, unassigned) [fraction 7, 10-hydroxy-2,7,8,10-tetramethyl-6,9-dioxo-1-oxaspiro[4.5]dec-7-ene-2-carboxylic acid] |  |  | longer readlengths | significantly increase sequencing readlength | increase the brightness | 
3 | Cc1c(C)c2c(c(C)c1O)CCC(C)(C(=O)O)O2 (single isomer, unassigned) [6-hydroxy-2,5,7,8-tetramethylchroman-2-carboxylic acid, reference compound] |  |  | surprisingly similar to having no PIDMA present at all |  |  | autocorrelation amplitude at a lag time of 0.001 ms ([1]; Example 1, FIG. 9, 532 nm, 0.4 mW, smaller amplitude = better triplet quencher): ~0.2; proportion of sequencing reactions that attained a readlength of at least one-fifth the maximum (polymerase; 0.5 mM, FIG. 13): about 10%; proportion of sequencing reactions that attained a readlength of at least one-tenth of the maximum readlength (polymerase; 0.5 mM, FIG. 13): 60%; sequencing reactions that attained a readlength of at least 30% of the maximum (polymerase; 0.5 mM, FIG. 13): very few; concentration near the saturation point [4]: 95000 to 100000 µM
4 | CC1=C(C)C(=O)C2(CCC(C)(C(=O)O)O2)C(C)(O)C1=O (single isomer, unassigned) [fraction 5, 10-hydroxy-2,7,8,10-tetramethyl-6,9-dioxo-1-oxaspiro[4.5]dec-7-ene-2-carboxylic acid] |  |  | longer readlengths | significantly increase sequencing readlength | increase the brightness | 
5 | CC(=O)CCC1=C(C)C(=O)C(C)=C(C)C1=O (single isomer, unassigned) [Fraction B, 2,3,5-trimethyl-6-(3-oxobutyl)-1,4-benzoquinone] | ~0.06 | ~0.04 |  |  |  | 
